Data as given in EP4559919A1, “TRICYCLIC-CONTAINING MACROCYCLIC COMPOUND AND USE THEREOF” (Medshine Discovery Inc., priority 2022, dated 2024).

Columns and labels:
[1] = molecular target: T1, CYP3A4-M (Homo sapiens, UniProt P08684); assay: Cytochrome P450 isozyme inhibitory activity test (human liver microsomes); assay type: in vitro ADME; conditions: human liver microsomes 0.1 mg/mL
T1 construct: Mixed human liver microsomes (HLM) purchased from Corning Inc; tissue Corning Inc; host or cells: pooled human liver microsomes
T1 sequence (P08684 whole entry): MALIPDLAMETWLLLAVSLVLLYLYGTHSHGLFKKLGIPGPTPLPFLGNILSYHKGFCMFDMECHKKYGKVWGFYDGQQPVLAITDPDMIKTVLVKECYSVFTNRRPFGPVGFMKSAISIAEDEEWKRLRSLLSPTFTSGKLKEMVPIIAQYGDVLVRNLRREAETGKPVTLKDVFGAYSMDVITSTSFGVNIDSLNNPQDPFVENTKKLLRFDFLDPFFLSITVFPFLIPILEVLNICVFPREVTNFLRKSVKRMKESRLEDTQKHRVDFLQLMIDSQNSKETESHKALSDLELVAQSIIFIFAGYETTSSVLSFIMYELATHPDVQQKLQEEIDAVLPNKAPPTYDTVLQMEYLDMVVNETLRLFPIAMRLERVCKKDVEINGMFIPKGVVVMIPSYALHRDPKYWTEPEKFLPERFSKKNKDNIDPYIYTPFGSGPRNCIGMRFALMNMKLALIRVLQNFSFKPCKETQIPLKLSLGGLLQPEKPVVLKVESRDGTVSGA

[2] = system: Ba/F3-EML4-ALK-G1202R/L1196M; assay: Anti-proliferative activity test on Ba/F3 cell lines (CellTiter-Glo); assay type: cell-based; conditions: for IC50: Ba/F3 EML4-ALK-G1202R-L1196M, 72 hours, read-out: Half maximal inhibitory concentration IC50 for cells Ba/F3-EML4-ALK-G1202R/L1196 M
Experimental: (§1) • (1) Cell culture: The cell lines were cultured in an incubator at 37°C with 5% CO2. Regular passaging was performed, and cells in the logarithmic growth phase were selected for plating; • (2) Preparation of compound storage plate: The test compounds were prepared into a 10 mM solution with DMSO (Stock Con.); The compounds were then prepared into a 1 mM solution with DMSO (Work Con.); 1 µL of the stock solution was mixed with 9 µL of DMSO to prepare a 10 µL work solution. • (3) Preparation of 1000× compound storage plate (tube): The compounds were 3-fold serially diluted from […] to the lowest concentration, for a total of 8 concentrations; • (4) Preparation of 20× compound working solution: 98 µL of cell culture medium was added to a flat-bottomed 96-well transparent drug plate. From the 1000× compound storage plate, 2 µL of the compound was pipetted into the cell culture medium in the 96-well transparent drug plate. In the solvent control, 2 µL of DMSO was added. After the compound or DMSO was added, the mixture was homogenized using a pipette. • (5) Cells were stained with trypan blue and viable cells were counted to ensure a cell viability of 90% or more. The cell concentration was adjusted to an appropriate concentration; • (6) 95 µL of cell suspension (2000 cells/well) was added to each well of the compound assay cell plate, and cell-free culture medium containing 0.1% DMSO was added to the Min control wells; • (7) Administration in the compound assay cell plate: 5 µL of 20× compound working solution was added to the cell culture plate, 5 µL of DMSO-cell culture medium mixture was added to the Max control wells, and the final concentration of DMSO was 0.1%; • (8) The culture plate was then incubated in an incubator at 37°C with 5% CO2 for 72 hours; • (9) The following operations were conducted in accordance with the instructions of the Promega CellTiter-Glo Luminescent Cell Viability Assay Kit (Promega-G7573): CellTiter-Glo buffer was thawed and brought to room temperature; CellTiter-Glo substrate was brought to room temperature; CellTiter-Glo buffer was added to a bottle of CellTiter-Glo substrate to dissolve the substrate, thereby preparing CellTiter-Glo working solution; The mixture was slowly vortexed and shaken to be fully dissolved; The cell culture plate was removed and allowed to equilibrate to room temperature for 10 minutes; 50 µL (equal to half the volume of cell culture medium in each well) of CellTiter-Glo working solution was added to each well; The culture plate was shaken on an orbital shaker for 2 minutes to induce cell lysis; The plate was then left at room temperature for 10 minutes to stabilize the luminescent signal; The luminescent signal was detected using a SpectraMax Paradigm plate reader; Cell viability assay was conducted using CellTiter-Glo luminescence method.
(§2) Data analysis: The corresponding […] value (RLU) for each well was obtained from SpectraMax Paradigm readings. […] The inhibition rates corresponding to compounds at different concentrations were calculated in Excel, and the inhibition rate curves were plotted using GraphPad Prism software to calculate relevant parameters, including the maximum and minimum inhibition rates of the cells and the IC50 value.

[3] = system: Ba/F3-TEL-TRKB; assay: as above; assay type: cell-based; conditions: Mus musculus, BaF3; 72 hours; read-out: Half maximal inhibitory concentration IC50 for cells Ba/F3-TEL-TRKB
Experimental: as §1, §2

[4] = molecular target: T2, TRKB (Homo sapiens, UniProt Q16620); assay: In vitro kinase inhibitory activity assay, Experimental method 2 (ADP-Glo); assay type: biochemical; conditions: Experimental method 2; ATP 5.0 µM, substrate PolyE4Y1; read-out: Kinase half maximal inhibitory concentration IC50 TRKB
T2 construct: purchased Carna
T2 sequence (Q16620 32-822): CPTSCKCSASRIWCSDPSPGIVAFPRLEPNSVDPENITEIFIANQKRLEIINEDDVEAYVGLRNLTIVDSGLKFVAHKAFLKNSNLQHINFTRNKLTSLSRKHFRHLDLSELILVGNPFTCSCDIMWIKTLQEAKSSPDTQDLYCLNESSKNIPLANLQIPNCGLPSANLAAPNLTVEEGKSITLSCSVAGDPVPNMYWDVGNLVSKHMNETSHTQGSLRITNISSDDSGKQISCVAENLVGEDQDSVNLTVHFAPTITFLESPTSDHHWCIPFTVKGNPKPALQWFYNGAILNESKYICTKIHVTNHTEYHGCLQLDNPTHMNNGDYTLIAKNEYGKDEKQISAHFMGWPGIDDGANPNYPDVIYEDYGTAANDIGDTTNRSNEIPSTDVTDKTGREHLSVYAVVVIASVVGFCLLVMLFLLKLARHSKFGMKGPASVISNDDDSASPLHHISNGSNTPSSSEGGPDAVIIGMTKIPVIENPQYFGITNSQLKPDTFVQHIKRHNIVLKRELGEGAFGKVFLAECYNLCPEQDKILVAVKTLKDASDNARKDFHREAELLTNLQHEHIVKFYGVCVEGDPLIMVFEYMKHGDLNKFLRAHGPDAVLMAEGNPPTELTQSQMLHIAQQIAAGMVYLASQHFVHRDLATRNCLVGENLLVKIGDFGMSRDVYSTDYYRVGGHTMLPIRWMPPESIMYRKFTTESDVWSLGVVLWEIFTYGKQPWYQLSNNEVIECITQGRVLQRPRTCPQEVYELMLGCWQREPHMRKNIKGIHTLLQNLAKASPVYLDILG
Experimental: (§3) The kinase inhibitory activity assays of the compounds against ALK, ALK^L1196M, ALK^G1202R, ALK^G1202R/L1196M, ROS1, and TRKB were conducted at Wuhan Heyan Biotechnology Co., Ltd. or Hefei PreceDo Biotechnology Co., Ltd.
(§4) Experimental materials: ALK (G1202R/L1196M) Active and TRKB were purchased from Carna; IGF1 was purchased from GenScript; PolyE4Y1 was purchased from SIGMA; ADP-Glo™ Reagent was purchased from Promega; ATP was purchased from Promega; Kinase Detection Reagent was purchased from Promega; microplate reader ( PerkinElmer).
TRKB reaction concentration 4.47 nM, ATP concentration 5.0 µM, substrate PolyE4Y1 concentration 0.2 µg/µL. TRKB kinase buffer was 40 mM Tris-HCl (pH 7.5) + 20 mM magnesium chloride + 2.5 mM manganese chloride + 0.1mg/mL BSA+ 50 µM DTT.
(§5) ALK(G1202R/L1196M) and TRKB detection method: 2 µL of kinase and 1 µL of compound were added to a 384-well plate; 2 µL of substrate/ATP mixture was added and incubated at room temperature in the dark for 60 minutes; 5 µL of ADP-Glo™ reagent was added and incubated at room temperature for 40 minutes; 10 µL of kinase detection reagent was added and incubated at room temperature for 30 minutes; the plate was read on a microplate reader, and luminescence was recorded (integration time set to 0.5 seconds).
(§6) The IC50 value could then be derived by performing a curve fit using a four-parameter logistic model (obtained using the "log(inhibitor) vs. response -- Variable slope" mode in GraphPad Prism).

[5] = molecular target: T3, CYP2C9 (Homo sapiens, UniProt P11712); assay: Cytochrome P450 isozyme inhibitory activity test (human liver microsomes); assay type: in vitro ADME; conditions: human liver microsomes 0.1 mg/mL; probe substrate Diclofenac
T3 construct: Mixed human liver microsomes (HLM) purchased from Corning Inc; tissue Corning Inc; host or cells: pooled human liver microsomes
T3 sequence (P11712 whole entry): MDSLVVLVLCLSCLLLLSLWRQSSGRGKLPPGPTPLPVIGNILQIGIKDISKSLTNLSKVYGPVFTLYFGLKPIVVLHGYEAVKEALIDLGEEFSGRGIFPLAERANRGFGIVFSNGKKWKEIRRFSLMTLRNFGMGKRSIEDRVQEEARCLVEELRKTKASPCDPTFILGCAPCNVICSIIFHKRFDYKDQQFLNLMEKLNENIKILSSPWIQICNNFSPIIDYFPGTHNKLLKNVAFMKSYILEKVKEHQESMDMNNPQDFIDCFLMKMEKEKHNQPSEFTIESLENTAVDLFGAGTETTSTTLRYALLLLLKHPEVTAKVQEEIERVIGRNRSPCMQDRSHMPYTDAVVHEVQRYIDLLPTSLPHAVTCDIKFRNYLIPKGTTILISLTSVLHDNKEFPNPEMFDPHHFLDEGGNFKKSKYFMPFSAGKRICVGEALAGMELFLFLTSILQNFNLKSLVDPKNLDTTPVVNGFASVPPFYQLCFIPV
Experimental: To test the inhibitory activity of the compounds of the present disclosure on different subtypes of human liver microsomal cytochrome P450 isozymes.
Mixed human liver microsomes (HLM) purchased from Corning Inc. (Steuben, New York, USA); Diclofenac as the probe substrate (10 µM); Sulfaphenazole as the positive control inhibitor; 4'-Hydroxydiclofenac as the metabolite
Preparation of test system working solution: Human liver microsomes (HLM): HLM stock solution at 20.0 mg/mL, working solution at 0.2 mg/mL, final concentration at 0.1 mg/mL; Potassium phosphate buffer: 100 mM; Cofactor working solution: Magnesium chloride, NADP (nicotinamide adenine dinucleotide phosphate), G6P (glucose-6-phosphate), G6PDH (glucose-6-phosphate dehydrogenase), and phosphate buffer or magnesium chloride, NADPH (reduced nicotinamide adenine dinucleotide phosphate) powder, and potassium phosphate buffer; prepared into cofactor working solution at appropriate ratios;
Stop solution: Isotope-labeled 4'-hydroxydiclofenac-d4 stock solution prepared in methanol, then prepared into stop solution using acetonitrile.
In the substrate-free control sample wells of the reaction plate, 100 µL of a mixture of human liver microsome and potassium phosphate buffer was added. At the zero-time point sample wells, 98 µL of a mixture of the human liver microsome and potassium phosphate buffer was added. In the no-inhibitor control (NIC), test compound, and positive control inhibitor sample wells of the reaction plate, 100 µL of a mixture of the human liver microsome and substrate was added. From the dilution plate, 2 µL of blank solvent, test compound working solution (three parallels), and positive control inhibitor working solution (two parallels) were added to the reaction plate. The reaction plate was preheated at 37.0°C for 10 minutes. […] The concentration of specific metabolites in the samples was detected using the liquid chromatography-tandem mass spectrometry (LC-MS/MS) method. […] The IC50 values were calculated using a three-parameter or four-parameter inverse log equation.

[6] = molecular target: T4, ALK(G1202R/L1196M) (Homo sapiens, UniProt Q9UM73, G1202R/L1196M); assay: In vitro kinase inhibitory activity assay, Experimental method 2 (ADP-Glo); assay type: biochemical; conditions: Experimental method 2; ATP 5.0 µM, substrate IGF1; read-out: Kinase half maximal inhibitory concentration IC50 ALK^G1202R/L1196M
T4 construct: purchased Carna
T4 sequence (Q9UM73 19-1620 L1196M/G1202R): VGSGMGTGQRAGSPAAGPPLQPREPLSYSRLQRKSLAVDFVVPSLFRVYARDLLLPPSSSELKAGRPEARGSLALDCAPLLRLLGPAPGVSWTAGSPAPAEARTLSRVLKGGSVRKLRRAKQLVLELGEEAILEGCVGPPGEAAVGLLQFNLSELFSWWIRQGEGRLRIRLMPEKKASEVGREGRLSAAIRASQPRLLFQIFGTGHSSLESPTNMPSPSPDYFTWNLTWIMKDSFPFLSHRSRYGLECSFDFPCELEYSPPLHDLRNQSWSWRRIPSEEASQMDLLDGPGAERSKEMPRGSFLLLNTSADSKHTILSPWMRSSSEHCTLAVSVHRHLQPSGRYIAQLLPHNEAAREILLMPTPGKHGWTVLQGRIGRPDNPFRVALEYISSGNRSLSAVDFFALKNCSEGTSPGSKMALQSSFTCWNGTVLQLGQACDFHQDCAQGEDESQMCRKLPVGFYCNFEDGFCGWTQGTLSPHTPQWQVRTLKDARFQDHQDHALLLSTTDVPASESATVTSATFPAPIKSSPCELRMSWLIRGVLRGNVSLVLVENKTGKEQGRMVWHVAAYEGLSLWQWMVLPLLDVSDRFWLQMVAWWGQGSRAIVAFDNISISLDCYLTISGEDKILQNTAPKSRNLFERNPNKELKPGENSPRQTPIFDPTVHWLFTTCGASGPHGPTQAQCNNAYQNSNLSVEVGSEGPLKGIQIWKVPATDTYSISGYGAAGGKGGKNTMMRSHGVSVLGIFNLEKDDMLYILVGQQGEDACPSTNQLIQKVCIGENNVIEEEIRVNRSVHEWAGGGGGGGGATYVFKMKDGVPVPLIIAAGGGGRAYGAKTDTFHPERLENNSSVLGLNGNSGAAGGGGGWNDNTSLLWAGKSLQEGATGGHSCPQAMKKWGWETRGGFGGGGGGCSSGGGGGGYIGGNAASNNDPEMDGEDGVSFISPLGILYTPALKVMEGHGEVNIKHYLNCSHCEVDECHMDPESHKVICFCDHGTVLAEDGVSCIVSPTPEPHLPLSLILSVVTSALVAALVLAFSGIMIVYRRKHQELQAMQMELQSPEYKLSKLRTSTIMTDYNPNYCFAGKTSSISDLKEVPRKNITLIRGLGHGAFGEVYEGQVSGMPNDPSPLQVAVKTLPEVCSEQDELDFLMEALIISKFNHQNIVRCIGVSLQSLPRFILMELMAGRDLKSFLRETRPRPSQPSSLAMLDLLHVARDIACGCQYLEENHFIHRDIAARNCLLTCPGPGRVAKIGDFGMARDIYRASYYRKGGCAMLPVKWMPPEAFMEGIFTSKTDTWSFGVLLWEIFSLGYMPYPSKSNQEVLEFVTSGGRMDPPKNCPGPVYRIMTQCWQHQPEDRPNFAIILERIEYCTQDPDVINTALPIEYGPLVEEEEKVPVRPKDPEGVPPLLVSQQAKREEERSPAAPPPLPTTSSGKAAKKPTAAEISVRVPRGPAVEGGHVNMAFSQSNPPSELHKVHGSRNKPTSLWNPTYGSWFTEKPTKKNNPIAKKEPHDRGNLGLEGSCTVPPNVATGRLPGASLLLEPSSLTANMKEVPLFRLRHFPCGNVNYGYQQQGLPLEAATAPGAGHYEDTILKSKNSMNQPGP
Experimental: as §3, §4
Reaction system: ALK(G1202R/L1196M) reaction concentration 8.63 nM, ATP concentration 5.0 µM, substrate IGF1 concentration 0.2 µg/µL. ALK(G1202R/L1196M) kinase buffer was 40 mM Tris-HCl (pH 7.5) + 20 mM magnesium chloride + 0.1 mg/mL BSA + 50 µM DTT.
as §5, §6

[7] = In vivo pharmacokinetic testing in mice; set-up: species or system male CD-1 mice; conditions: mouse, IV, 0.5 mg/kg, plasma
Experimental: The objective was to study the pharmacokinetic behavior of the compounds of the present disclosure in mice, using male CD-1 mice aged 7 to 9 weeks as test animals. The concentrations of the compounds in plasma at different time points after a single intravenous injection (IV) and oral gavage (PO) administration of the compound were determined using LC/MS/MS.
Two groups of healthy mice (fasted) were administered the compounds via intravenous injection (IV) and oral gavage (PO), with 2 mice in each group.
The test compounds were mixed with the solvent, vortexed, and sonicated to prepare a clear solution with a concentration of 0.5 mg/mL and a pH of 3.3-3.6. The intravenous injection dose for the mice was 1.0 mg/kg. […] The test compounds were mixed with the solvent, vortexed, and sonicated to prepare a homogeneous suspension with particles at a concentration of 0.5 mg/mL and a pH of 6.8-7.0. The oral gavage dose for the mice was 5.0 mg/kg.
The test compound was mixed with the solvent, vortexed, and sonicated to prepare a clear solution with a concentration of 1.0 mg/mL. The intravenous injection dose for the mice was 1.0 mg/kg. […] The test compound was mixed with the solvent, vortexed, and sonicated to prepare a homogeneous suspension with particles at a concentration of 0.5 mg/mL. The oral gavage dose for the mice was 5.0 mg/kg.
The test compounds were mixed with the solvent, vortexed, and sonicated to prepare a clear solution with a concentration of 0.1 mg/mL. The intravenous injection dose for the mice was 0.5 mg/kg. […] The test compound was mixed with the solvent, vortexed, and sonicated to prepare a homogeneous suspension with particles at a concentration of 0.5 mg/mL and a pH of 7.08. The oral gavage dose for the mice was 5.0 mg/kg. After administration, the whole blood was collected at the time points of 0.083 hours, 0.25 hours, 0.5 hours, 1.0 hour, 2.0 hours, 4.0 hours, 8.0 hours, 12.0 hours, and 24.0 hours. Plasma was prepared from the whole blood and analyzed for drug concentration by LC-MS/MS. The pharmacokinetic parameters were calculated using Phoenix WinNonlin 6.3.

[8] = molecular target: T5, ALK(G1202R) (Homo sapiens, UniProt Q9UM73, G1202R); assay: In vitro kinase inhibitory activity assay, Experimental method 1 (ADP-Glo); assay type: biochemical; conditions: final ATP 50 µM, read-out: Kinase half maximal inhibitory concentration IC50 ALK^G1202R
T5 construct: purchased Carna
T5 sequence (Q9UM73 19-1620 G1202R): as the sequence (Q9UM73 19-1620 L1196M/G1202R) above, with M1178L counted along it
Experimental: as §3
(§7) Experimental materials: ALK Active, ALK(L1196M) Active, ALK(G1202R) Active, and ALK(G1202R/L1196M) Active were purchased from Carna; SRC Substrate was purchased from SignalChem; IGF1R tide was purchased from SignalChem; ADP-Glo Kinase Assay was purchased from Promega; Kinase assay buffer III was purchased from SignalChem; and Nivo multimode plate reader (PerkinElmer).
(§8) Each concentration of the compounds was further diluted 20-fold using 1X kinase buffer to prepare compound working solutions containing 5% DMSO. 1 µL of each concentration gradient working solution was added to a microplate, with duplicate wells set for each concentration. 2 µL of ALK enzyme (15 ng per well) and 2 µL of a mixture of substrate and ATP (25 µM ATP, 0.5 µg/µL SRC Substrate) were added to the microplate. […] The reaction system was placed at 25°C for 1 hour. After the reaction, 5 µL of ADP-Glo reagent was added to each well and reacted at 25°C for another 40 minutes. After the reaction, 10 µL of kinase detection reagent was added to each well and reacted at 25°C for 30 minutes. Chemiluminescence was then measured using the PerkinElmer Nivo multimode plate reader with an integration time of 0.5 seconds.
ALK (G1202R) kinase inhibition assay method: The preparation method for the working solution of the test compound was the same as for the ALK kinase. […] The subsequent steps were the same as for ALK kinase.
as §6

[9] = molecular target: ROS1 (Homo sapiens, UniProt P08922); assay: as above; assay type: biochemical; conditions: read-out: Kinase half maximal inhibitory concentration IC50 ROS1
Experimental: as §3, §7
as §8, with “After the reaction, 10 µL of kinase detection reagent was added to each well and reacted at 25°C for 30 minutes.” left out, “seconds. […]” for “seconds.”

[10] = molecular target: T2, TRKB; assay: as above; assay type: biochemical; conditions: read-out: Kinase half maximal inhibitory concentration IC50 TRKB
Experimental: as §3, §7, §8
TRKB kinase inhibition assay method: The preparation method for the working solution of the test compound was the same as for the ALK kinase. 2 µL of TRKB (0.5 ng per well) and 4 µL of a mixture of substrate and ATP (5 µM ATP, 0.5 µM SRC Substrate) were added to the microplate. […] The subsequent steps were the same as for ALK kinase.
as §6

[11] = molecular target: T4, ALK(G1202R/L1196M); assay: as above; assay type: biochemical; conditions: final ATP 50 µM, read-out: Kinase half maximal inhibitory concentration IC50 ALK^G1202R/L1196M
Experimental: as §3, §7, §8
ALK (G1202R/L1196M) kinase inhibition assay method: The preparation method for the working solution of the test compound was the same as for the ALK kinase. […] The subsequent steps were the same as for ALK kinase.
as §6

Compound | IC50 [1] | IC50 [2] | IC50 [3] | IC50 [4] | IC50 [5] | IC50 [6] | selectivity: inhibition against ALK-mutant cells versus TRKB phenotypic cells ([2]; stronger inhibition of ALK-mutant cells, relatively weaker of TRKB phenotypic cells) | Vd ([7]; read-out: Apparent volume of distribution Vd) | AUC(0-t) ([7]; read-out: Area under the curve AUC0-last) | half-life ([7]; read-out: Half-life T1/2 (converted)) | IC50 [8] | IC50 [9] | IC50 [10] | IC50 [11]
N#Cc1nn2cc3c4nc2c1C(=O)NC1(CCC1)COc1ccc(F)cc1CN4[C@H](C(F)F)CO3 [Compound 022] | > 50000 nM | 4.2 nM | 2.3 nM | 24.7 nM | 460 nM | 7.8 nM |  |  |  |  |  |  |  | 
N#Cc1nn2cc3c4nc2c1C(=O)N[C@H]1C[C@H](C1)Oc1ccc(F)cc1CN4[C@H](C(F)F)CO3 [Compound 024] | > 50000 nM | 1.6 nM | 0.8 nM | 5.3 nM | 2120 nM | 2.3 nM |  |  |  |  |  |  |  | 
C#Cc1nn2cc3c4nc2c1C(=O)NC(C)(C)COc1ccc(F)cc1CN4[C@H](C(F)F)CO3 [Compound 019] |  | 1.7 nM | 3.5 nM | 2.5 nM |  | 0.9 nM | excellent selectivity | 0.274 L/kg | 15.2 µM·h | 1.28 h |  |  |  | 
CON=C1NC(C)(C)COc2ncc(F)cc2CN2c3nc4c1cnn4cc3OC[C@H]2C(F)F [Compound 005] |  |  |  |  |  |  |  |  |  |  | 3.8 nM | 0.6 nM | 1.2 nM | 5.2 nM
